Results on twelve compounds are retold here after patent US11298363B2, “Triazolobenzazepines as vasopressin V1a receptor antagonists” (RICHTER GEDEON NYRT., priority 2017, dated 2022).

Usually Ki stands for a dissociation constant, usually derived from enzyme kinetics or from competition with a known ligand. As a reminder, the IC50 is the concentration needed to halve the response being measured.

Test [1] has as its target T1, human vasopressin V1a receptor (Homo sapiens, UniProt P37288). Put plainly: Human vasopressin V1a receptor binding assay. Particulars: 1321N1 cell membranes, [3H]vasopressin; read-out: Ki (nM) on hV1a cell line. An outline of the steps:
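Ki values come from IC50 via Cheng-Prusoff (KD from prior Scatchard), averaged over at least two independent runs. Human V1a membranes were incubated with radioligand 60 minutes at 27° C., bound ligand collected by filtration; (Arg^8)-vasopressin at 1.2×10^−6 M defined non-specific binding.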

Test [2] concerns the target T1, human vasopressin V1a receptor. Put plainly: Functional assay on human vasopressin V1a receptor expressing cell line (intracellular Ca2+ fluorescence). In kind it is cell-based. Particulars: 1321N1 cells, (Arg8)-vasopressin at EC80; read-out: IC50 (nM) on hV1a cell line.

T1 sequence (P37288 whole entry): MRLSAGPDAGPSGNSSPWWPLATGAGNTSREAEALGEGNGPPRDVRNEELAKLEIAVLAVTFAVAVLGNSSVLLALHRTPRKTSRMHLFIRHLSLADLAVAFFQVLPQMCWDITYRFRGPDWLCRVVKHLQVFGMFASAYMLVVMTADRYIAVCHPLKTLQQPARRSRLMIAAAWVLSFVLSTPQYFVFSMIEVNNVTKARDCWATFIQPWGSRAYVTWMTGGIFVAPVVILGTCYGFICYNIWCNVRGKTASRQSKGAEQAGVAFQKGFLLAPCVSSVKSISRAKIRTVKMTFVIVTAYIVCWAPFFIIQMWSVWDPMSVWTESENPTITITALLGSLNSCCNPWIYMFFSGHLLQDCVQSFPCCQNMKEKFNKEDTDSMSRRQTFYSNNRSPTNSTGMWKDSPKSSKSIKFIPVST

As for `CC(C)(C)OC(=O)NC1Cc2ccccc2-n2c(nnc2[C@H]2CC[C@H](Oc3ccccn3)CC2)C1` (stereo partly drawn) [Example 142, Tert-butyl {1-[trans-4-(pyridin-2-yloxy)cyclohexyl]-5,6-dihydro-4H-[1,2,4]triazolo[4,3-a][1]benzazepin-5-yl}carbamate], in test [1], the Ki was 14.3 nM. Further, the IC50 in test [2] was found to be 225 nM.
Taken in the same sequence, the figures for `CC(C)(C)OC(=O)NC1Cc2cc(F)ccc2-n2c(nnc2[C@H]2CC[C@H](Oc3ccccn3)CC2)C1` (stereo partly drawn) [Example 143, Tert-butyl {8-fluoro-1-[trans-4-(pyridin-2-yloxy)cyclohexyl]-5,6-dihydro-4H-[1,2,4]triazolo[4,3-a][1]benzazepin-5-yl}carbamate] were 5 nM and 156 nM.
Regarding `NC1Cc2ccccc2-n2c(nnc2[C@H]2CC[C@H](Oc3ccccn3)CC2)C1` (stereo partly drawn) [Example 144, 1-[trans-4-(pyridin-2-yloxy)cyclohexyl]-5,6-dihydro-4H-[1,2,4]triazolo[4,3-a][1]benzazepin-5-amine], the Ki in test [1] came to 34 nM. In addition, the IC50 in test [2] worked out at 168 nM.
Taken in the same sequence, the figures for `NC1Cc2cc(F)ccc2-n2c(nnc2[C@H]2CC[C@H](Oc3ccccn3)CC2)C1` (stereo partly drawn) [Example 145, 8-fluoro-1-[trans-4-(pyridin-2-yloxy)cyclohexyl]-5,6-dihydro-4H-[1,2,4]triazolo[4,3-a][1]benzazepin-5-amine] were 12.7 nM and 47 nM.
Taken in the same sequence, the figures for `CC(C)NC1Cc2cc(F)ccc2-n2c(nnc2[C@H]2CC[C@H](Oc3ccccn3)CC2)C1` (stereo partly drawn) [Example 146, 8-fluoro-N-(propan-2-yl)-1-[trans-4-(pyridin-2-yloxy)cyclohexyl]-5,6-dihydro-4H-[1,2,4]triazolo[4,3-a][1]benzazepin-5-amine] were 3.2 nM and 78 nM.
Taken in the same sequence, the figures for `CN(C)C1Cc2cc(F)ccc2-n2c(nnc2[C@H]2CC[C@H](Oc3ccccn3)CC2)C1` (stereo partly drawn) [Example 147, 8-fluoro-N,N-dimethyl-1-[trans-4-(pyridin-2-yloxy)cyclohexyl]-5,6-dihydro-4H-[1,2,4]triazolo[4,3-a][1]benzazepin-5-amine] were 1 nM and 9.4 nM.
Take `CN(C)C1Cc2ccccc2-n2c(nnc2[C@H]2CC[C@H](Oc3ccccn3)CC2)C1` (stereo partly drawn) [Example 148]: the Ki in test [1] came to 1.2 nM. In test [2], the IC50 was 26 nM.
Taken in the same sequence, the figures for `Fc1ccc2c(c1)CC1(Cc3nnc([C@H]4CC[C@H](C(F)(F)F)CC4)n3-2)OCCO1` [Example 149, 8′-fluoro-1′-[trans-4-(trifluoromethyl)cyclohexyl]-4′H,6′H-spiro[1,3-dioxolane-2,5′-[1,2,4]triazolo[4,3-a][1]benzazepine]] were 0.8 nM and 15 nM.
Taken in the same sequence, the figures for `CC(C)NC1Cc2ccccc2-n2c(nnc2[C@H]2CC[C@H](Oc3ccccn3)CC2)C1` (stereo partly drawn) [Example 150, N-(propan-2-yl)-1-[trans-4-(pyridin-2-yloxy)cyclohexyl]-5,6-dihydro-4H-[1,2,4]triazolo[4,3-a][1]benzazepin-5-amine] were 5 nM and 94 nM.
Taken in the same sequence, the figures for `O=C(N[C@H]1Cc2cc(Cl)ccc2-n2c(nnc2[C@H]2CC[C@H](Oc3ccccn3)CC2)C1)C1CCOCC1` [Example 151] were 30 nM and 209 nM.
Turning to `CCC(C)C(=O)N[C@H]1Cc2cc(Cl)ccc2-n2c(nnc2[C@H]2CC[C@H](Oc3ccccn3)CC2)C1` (stereo partly drawn) [Example 152], the Ki in test [1] is 67 nM. In addition, the IC50 in test [2] was determined as 737 nM.
As for `CN(C)CCC(=O)N[C@H]1Cc2cc(Cl)ccc2-n2c(nnc2[C@H]2CC[C@H](Oc3ccccn3)CC2)C1` [Example 153, N-{(5S)-8-chloro-1-[trans-4-(pyridin-2-yloxy)cyclohexyl]-5,6-dihydro-4H-[1,2,4]triazolo[4,3-a][1]benzazepin-5-yl}-N^3,N^3-dimethyl-β-alaninamide], the Ki in test [1] worked out at 20.5 nM. Besides, the IC50 in test [2] is 307 nM.
